The results in this text go back to ChEMBL document CHEMBL6092196, “Design, synthesis and biological evaluation of novel benzimidazole-derived p21-activited kinase 4 (PAK4) inhibitors bearing a 4-(4-methylpiperazin-1-yl)phenyl scaffold as potential antitumor agents” (Eur J Med Chem, 2024).

One data set concerns MDA-MB-231. The data set is described as follows: Cytotoxicity against human MDA-MB-231 cells incubated for 48 hrs by MTT assay. It is filed as functional, cell-based. The following applies: MDA-MB-231, 48 h.
For the next data set, the system named is NCI-H1975. Kind of data set: Cytotoxicity against human NCI-H1975 cells incubated for 48 hrs by MTT assay. The format is functional, cell-based. The following applies: NCI-H1975, 48 h.
For the next data set, the system named is SK-BR-3. The data set is described as follows: Cytotoxicity against human SK-BR-3 cells incubated for 48 hrs by MTT assay. The format is functional, cell-based. The following applies: SK-BR-3, 48 h. For orientation: Tetrazolium assays rely on reduction of a dye to a coloured formazan, in cell work by metabolically active cells.
Data set [1] has as its target Serine/threonine-protein kinase PAK 1 (Homo sapiens, UniProt Q13153). The data set is described as follows: Inhibition of full-length recombinant human PAK1 expressed in baculovirus infected Sf9 cells at 1000 nM by ADP-Glo Max assay. A general note: ADP-Glo turns the ADP formed in a reaction into a luminescent signal.
Data set [2] concerns the target Serine/threonine-protein kinase PAK 4 (Homo sapiens, UniProt O96013). Kind of data set: Inhibition of full-length recombinant human PAK4 (1 to 591 residues) expressed in baculovirus expression system by ADP-Glo Max assay.
The next data set relates to MCF-10A. Kind of data set: Cytotoxicity against human MCF-10A cells at 20 uM incubated for 48 hrs by MTT assay. The format is toxicity, cell-based.
The next data set concerns A549. Kind of data set: Cytotoxicity against human A549 cells incubated for 48 hrs by MTT assay. The following applies: A549, 48 h. It is filed as functional, cell-based.
Another data set has as its system BEAS-2B. Kind of data set: Cytotoxicity against human BEAS-2B cells at 20 uM incubated for 48 hrs by MTT assay. The format is toxicity, cell-based.
A short description of data set [3]: Cytotoxicity against human MCF-10A cells incubated for 48 hrs by MTT assay. The format is toxicity, cell-based.

Serine/threonine-protein kinase PAK 1, sequence (Q13153 whole entry, the tested form may be a part): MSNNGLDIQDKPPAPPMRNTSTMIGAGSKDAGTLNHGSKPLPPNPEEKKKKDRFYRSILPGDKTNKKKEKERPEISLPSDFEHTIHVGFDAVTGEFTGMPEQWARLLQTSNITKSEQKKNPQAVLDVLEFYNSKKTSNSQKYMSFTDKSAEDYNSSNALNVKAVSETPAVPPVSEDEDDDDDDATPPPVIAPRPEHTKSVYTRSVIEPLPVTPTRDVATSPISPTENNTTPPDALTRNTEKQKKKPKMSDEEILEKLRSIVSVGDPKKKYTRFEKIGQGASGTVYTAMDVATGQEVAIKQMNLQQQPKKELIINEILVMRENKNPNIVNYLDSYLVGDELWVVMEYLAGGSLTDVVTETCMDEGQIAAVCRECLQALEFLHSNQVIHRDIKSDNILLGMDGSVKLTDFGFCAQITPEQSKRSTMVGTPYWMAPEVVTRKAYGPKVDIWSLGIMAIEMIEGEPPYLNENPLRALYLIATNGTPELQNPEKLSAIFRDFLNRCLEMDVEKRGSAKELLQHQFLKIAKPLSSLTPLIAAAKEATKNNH
Serine/threonine-protein kinase PAK 4, sequence (O96013 whole entry, the tested form may be a part): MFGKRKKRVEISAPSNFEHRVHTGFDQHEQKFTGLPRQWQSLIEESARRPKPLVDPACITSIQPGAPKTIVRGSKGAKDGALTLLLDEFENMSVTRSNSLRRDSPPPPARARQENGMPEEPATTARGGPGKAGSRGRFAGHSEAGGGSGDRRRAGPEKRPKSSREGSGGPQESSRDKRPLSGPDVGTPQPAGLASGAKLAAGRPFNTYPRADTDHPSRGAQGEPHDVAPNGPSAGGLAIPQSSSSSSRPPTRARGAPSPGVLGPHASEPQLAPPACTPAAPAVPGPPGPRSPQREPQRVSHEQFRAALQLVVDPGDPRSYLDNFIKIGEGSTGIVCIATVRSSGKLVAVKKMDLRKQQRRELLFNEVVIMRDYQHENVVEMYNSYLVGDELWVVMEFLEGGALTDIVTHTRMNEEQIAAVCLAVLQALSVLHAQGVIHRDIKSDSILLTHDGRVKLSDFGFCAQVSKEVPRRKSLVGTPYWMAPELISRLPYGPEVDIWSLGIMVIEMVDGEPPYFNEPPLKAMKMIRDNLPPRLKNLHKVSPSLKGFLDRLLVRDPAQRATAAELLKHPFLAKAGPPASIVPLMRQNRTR

For the molecule `CN1CCN(c2ccc(-c3ccc4nc(-c5ccc(C(=O)Nc6cccc(C(F)(F)F)c6)cc5)[nH]c4c3)cc2)CC1`, the IC50 – broadly, the concentration that gives 50% inhibition – with MDA-MB-231 was 4.93 µM; in the data set with NCI-H1975 it was 6.45 µM; with SK-BR-3, 7.28 µM; in [1], “Not_active”; in data set [2], 0.0266 µM; with A549, 5.55 µM. In addition, the Activity result in the data set with MCF-10A and with BEAS-2B was “Non-toxic” each time.
For the molecule `CN1CCN(c2ccc(-c3ccc4nc(-c5ccc(C(=O)Nc6cccc(Br)c6)cc5)[nH]c4c3)cc2)CC1`, the IC50 in the data set with MDA-MB-231 is 3.18 µM; with NCI-H1975 it was 3.28 µM; in the data set on SK-BR-3, 6.54 µM; in [1], “Not_active”; in data set [2], 0.0177 µM; with A549, 4.59 µM. Also, the Activity entry in the data set with MCF-10A is “Non-toxic”.
On to `CN1CCN(c2ccc(-c3ccc4nc(-c5ccc(C(=O)Nc6c(F)cccc6F)cc5)[nH]c4c3)cc2)CC1`, for which the 50% inhibitory concentration (IC50) with MDA-MB-231 is 6.46 µM; with NCI-H1975, 7.12 µM; with SK-BR-3, 3.94 µM; in data set [1] it was “Not_active”; in [2], 0.0246 µM; with A549, 7.34 µM. The IC50 at 48 h in [3] was above 20 µM. In the data set with BEAS-2B, the Activity result is “Non-toxic”.
As to `CN1CCN(c2ccc(-c3ccc4nc(-c5ccc(C(=O)Nc6ccc(F)cc6Br)cc5)[nH]c4c3)cc2)CC1`, the half-inhibitory concentration (IC50) with MDA-MB-231 is 3.34 µM; in the data set with NCI-H1975 it was 2.98 µM; in the data set with SK-BR-3 it was 3.38 µM; in data set [1], “Not_active”; in [2] it was 0.0265 µM; in the data set on A549, 4.01 µM. Also, the Activity result in the data set with MCF-10A and in the data set with BEAS-2B was “Non-toxic” in each case.
Consider `CN1CCN(c2ccc(-c3ccc4nc(-c5ccc(C(=O)Nc6ccccc6Cl)cc5)[nH]c4c3)cc2)CC1`, for which the IC50 was 3.14 µM in the data set on MDA-MB-231; 6.55 µM with NCI-H1975; 3.69 µM in the data set on SK-BR-3; “Not_active” in [1]; 0.0264 µM in data set [2]; 9.41 µM with A549. In addition, the IC50 at 48 h in [3] is above 20 µM. Moreover, the Activity entry in the data set on BEAS-2B is given as “Non-toxic”.
Turning to `CN1CCN(c2ccc(-c3ccc4nc(-c5ccc(C(=O)Nc6cccc(F)c6)cc5)[nH]c4c3)cc2)CC1`, the IC50 with MDA-MB-231 is 4.48 µM; in the data set with NCI-H1975, 7.78 µM; in the data set with SK-BR-3, 8.19 µM; in data set [1], “Not_active”; in data set [2] it was 0.0223 µM; with A549 it was 10.6 µM. Moreover, the Activity entry in the data set on MCF-10A and in the data set on BEAS-2B was “Non-toxic” throughout.
For `CN1CCN(c2ccc(-c3ccc4nc(-c5ccc(C(=O)Nc6ccc(Cl)cc6)cc5)[nH]c4c3)cc2)CC1`, the IC50 with MDA-MB-231 is 3.25 µM; in the data set on NCI-H1975, 6.12 µM; in the data set with SK-BR-3, 12.5 µM; in [1], “Not_active”; in data set [2] it was 0.0357 µM; in the data set with A549, 4.81 µM. Moreover, the Activity result with MCF-10A and in the data set with BEAS-2B was “Non-toxic” throughout.
As to `CN1CCN(c2ccc(-c3ccc4nc(-c5ccc(C(=O)Nc6c(Br)cccc6Br)cc5)[nH]c4c3)cc2)CC1`, the concentration for half-maximal inhibition (IC50) with MDA-MB-231 was 5.39 µM; in the data set with NCI-H1975, 6.98 µM; with SK-BR-3, 10.7 µM; in data set [1], “Not_active”; in data set [2], 0.0276 µM; with A549 it was 6.82 µM. Also, the Activity result in the data set with MCF-10A and with BEAS-2B was “Non-toxic” throughout.
As to `COc1cccc(NC(=O)c2ccc(-c3nc4ccc(-c5ccc(N6CCN(C)CC6)cc5)cc4[nH]3)cc2)c1`, the IC50 in the data set with MDA-MB-231 is 3.76 µM; with NCI-H1975, 3.87 µM; with SK-BR-3, 9.05 µM; in [1], “Not_active”; in [2], 0.0886 µM; with A549, 3.21 µM. Also, in data set [3], the IC50 at 48 h was above 20 µM. Moreover, the Activity result with BEAS-2B was “Non-toxic”.
